Test results reported in patent US20230235036A1, “ACVR1 (ALK2) RECEPTOR INHIBITION TO TREAT NEUROLOGICAL DISEASES” (The J. David Gladstone Institutes, a testamentary trust …, priority 2020, published 2023).
Entries after “also recorded” stand apart in the source; their conditions may differ. Like-named read-outs stand apart in the source and are kept apart here.

Key:
[1] = test system: BMP signaling (P-SMAD1/5, ID2) in primary rat OPCs; assay: Immunoblot of phospho-SMAD1/5 and ID2 in fibrinogen-treated OPCs; assay type: cell-based
Procedure: Cells or tissue were lysed in RIPA lysis buffer (Thermo Fisher Scientific) supplemented with protease/phosphatase inhibitor cocktails (Calbiochem) and lysates were cleared by centrifuging at 13,000×g for 15 minutes at 4° C. Equal amounts of protein were loaded in […] bis-tris gels (Thermo Fisher Scientific) and analyzed by western blotting. Bands were visualized with HRP-conjugated secondary antibodies (Cell Signaling Technology). Densitometry was performed using ImageJ Software (NIH) with values for each band normalized to GAPDH loading controls from the same membrane. Primary antibodies were: Id2 (1:1000, rabbit monoclonal, #M213, CalBioreagents); phospho-Smad1/5 (1:1000, rabbit monoclonal, #9516, Cell Signaling Technology); GAPDH (1:1000, rabbit monoclonal, #2118, Cell Signaling Technology)

[2] = test system: primary rat OPCs; assay: OPC-X-screen: OPC differentiation to MBP+ OLs or GFAP+ astrocytes in presence of fibrinogen; assay type: cell-based; conditions: for cell-fate switch of OPCs to GFAP+ cells by fibrinogen: fibrinogen-treated OPCs, clemastine 1 μM; for cell-fate switch of OPCs to GFAP+ cells by fibrinogen / OPC differentiation to mature MBP+ OLs under extrinsic inhibition by fibrinogen: DMH1 1 μM; for OPC differentiation to mature MBP+ OLs under extrinsic inhibition by fibrinogen: myelin-promoting compound screen, fibrinogen 1.5 mg/ml, benztropine, clemastine, quetiapine, miconazole, (±)U-50488 1 μM, clobetasol 5 μM, XAV-939 0.1 μM
[3] = Water solubility; assay type: physicochemical
[4] = test system: PLP-EAE; assay: In vivo PLP-EAE
[5] = test system: NOD-MOG35-55 EAE mice; assay: Progressive NOD-MOG35-55 EAE, therapeutic treatment; assay type: in vivo, mouse
[6] = test system: NG2-CreER™:Rosa^tdTomato/+ MOG35-55-EAE mice; conditions: vs saline
[7] = LDN-212854 dose response 5 μM to 2 nM, fibrinogen 2.5 mg/ml, 3 days
[8] = in vivo 2P imaging at chronic EAE
[9] = fibrinogen alone vs control, OPC-X assay

Q: Which “fibrinogen-induced expression of BMP target protein ID2” value [1] does the source give for `CC(C)Oc1ccc(-c2cnc3c(-c4ccnc5ccccc45)cnn3c2)cc1` [DMH1] here?
A: The value was “blocked”.

Q: And the “fibrinogen-induced phosphorylation of SMAD1/5” value [1]?
A: The value was “blocked”.

Q: What about the “cell-fate switch of OPCs to GFAP+ cells by fibrinogen” value ([2]; 3 days) of the same molecule?
A: The value was “abolished”.

Q: What about the “OPC differentiation to mature MBP+ OLs under extrinsic inhibition by fibrinogen” value ([2]; 3 days) of the same molecule?
A: Its value is “restored OPC differentiation to mature OLs to control levels”.

Q: What about the water solubility [3] of the same molecule?
A: The water solubility was “not water-soluble”.

Q: Which results are given for `c1cc(-c2cnn3cc(-c4ccc(N5CCNCC5)cc4)cnc23)c2cccnc2c1` [LDN-212854]?
A: formation of GFAP+ astrocytes from fibrinogen-treated OPCs [2, 7]: blocked the formation of GFAP+ astrocytes; mature OL (MBP+) differentiation from fibrinogen-treated OPCs [2, 7]: enhanced formation of mature oligodendrocytes; also recorded: restored mature OL differentiation; water solubility [3]: water soluble; also recorded: water-soluble; clinical scores [4]: improved; spinal cord Id2 protein levels [4]: reduced; demyelination in spinal cord ([5]; 30 days treatment, vs saline): reduced; fibrinogen deposition in spinal cord ([5]; 30 days treatment, vs saline): reduced; clinical scores ([5]; treated for 30 days, vs saline): significantly improved; group mean of maximum clinical scores ([5]; treated for 30 days, maximum scores from the last 20 days of treatment, five-point scale): 1.75; clinical scores ([6]; 6 mg/kg twice daily for 14 days starting at peak disease): significantly improved; ID2 expression in NG2 cells in the EAE white matter ([6]; 14 day treatment): decreased; demyelination in spinal cord ([6]; 14 days treatment): reduced; fibrinogen deposition in spinal cord ([6]; 14 days treatment): reduced; myelin damage (myelin circularity) [6, 8]: markedly reduced; perivascular NG2 clusters [6, 8]: markedly reduced

Q: For `Oc1nc(-c2ccc(C(F)(F)F)cc2)nc2c1CSCC2` [XAV-939], which “OPC differentiation to mature MBP+ OLs under extrinsic inhibition by fibrinogen” value ([2]; 3 days) is on record?
A: Its value is “did not overcome extrinsic inhibition of OPC differentiation by fibrinogen”.

Q: For `CN1[C@@H]2CC[C@H]1C[C@@H](OC(c1ccccc1)c1ccccc1)C2` [benztropine], which “OPC differentiation to mature MBP+ OLs under extrinsic inhibition by fibrinogen” value ([2]; 3 days) is on record?
A: Its value is “did not overcome extrinsic inhibition of OPC differentiation by fibrinogen”.

Q: With `CN1CCC[C@@H]1CCO[C@](C)(c1ccccc1)c1ccc(Cl)cc1` [clemastine] as the molecule, how does the “fibrinogen-induced expression of BMP target protein ID2” value [1] read?
A: Its value is “did not block”.

Q: And the “fibrinogen-induced phosphorylation of SMAD1/5” value [1]?
A: Its value is “did not inhibit”.

Q: What about the “fibrinogen-induced phosphorylation of SMAD1/5” value ([1]; listed as Clemastine) of the same molecule?
A: The value was “did not block”.

Q: What about the “OPC differentiation to mature OLs in the presence of fibrinogen” value ([2]; clemastine dose-response, fibrinogen 2.5 mg/ml, differentiation media without T3 or growth factors, 3 days) of the same molecule?
A: The value was “did not enhance”.

Q: And the “cell-fate switch of OPCs to GFAP+ cells by fibrinogen” value ([2]; 3 days)?
A: The value was “did not inhibit SMAD1/5 phosphorylation, a key pathway downstream of BMP receptor activation, or rescue”.

Q: What about the “number of MBP+ cells in control conditions” value ([2]; no fibrinogen, differentiation media without T3 or growth factors, 3 days) of the same molecule?
A: The value was “increased”.

Q: For `C[C@H]1C[C@H]2[C@@H]3CCC4=CC(=O)C=C[C@]4(C)[C@@]3(F)[C@@H](O)C[C@]2(C)[C@@]1(O)C(=O)CCl` [clobetasol], which “OPC differentiation to mature MBP+ OLs under extrinsic inhibition by fibrinogen” value ([2]; 3 days) is on record?
A: Its value is “did not overcome extrinsic inhibition of OPC differentiation by fibrinogen”.

Q: With `Clc1ccc(COC(Cn2ccnc2)c2ccc(Cl)cc2Cl)c(Cl)c1` (stereo not drawn) [miconazole] as the molecule, how does the “OPC differentiation to mature MBP+ OLs under extrinsic inhibition by fibrinogen” value ([2]; 3 days) read?
A: The value was “did not overcome extrinsic inhibition of OPC differentiation by fibrinogen”.

Q: Which “OPC differentiation to mature MBP+ OLs under extrinsic inhibition by fibrinogen” value ([2]; 3 days) does the source give for `OCCOCCN1CCN(C2=Nc3ccccc3Sc3ccccc32)CC1` [quetiapine] here?
A: The value was “did not overcome extrinsic inhibition of OPC differentiation by fibrinogen”.

Q: What does the source list for fibrinogen?
A: decrease of MBP+ mature OLs as compared to controls [2, 9]: ~60%; increase of GFAP+ astrocyte-like cells as compared to controls [2, 9]: ~60%
